Measured values: patent US8222404B2, “[1,2,4]Thiadiazin-3-yl acetic acid compound and methods of making the acetic acid compound” (Anadys Pharmaceuticals, Inc., priority 2008, dated 2012)

system: HCV Huh-luc/neo-ET replicon cells; test: Luciferase-Based HCV Replicon Assay (EC50 (1b)); format: cell-based; details: Hepatitis C virus, 72 hours exposure, luciferase activity
Protocol: Luciferase-Based HCV Replicon Assay Protocol (EC50 (1b))
The cell culture component of the assay was performed essentially as described by Bartenschlager et al., Hepatology 2002, 35, 694-703, wherein exponentially growing HCV Huh-luc/neo-ET replicon cells were seeded at 6×10^3 cells/well in 96 well assay plate. 24 hours later the cells were treated with various concentrations of compound in triplicate. After 72 hours exposure to the compound, the luciferase activity in the wells was determined using Bright-Glo reagent (Promega, Madison, Wis.) with a luminometer (Wallac 1420 Multilabel HTS Counter Victor 2). The background control was replicon cells treated with 100 nM BILN-2061, an inhibitor of the HCV protease. % Inhibition was determined for each compound concentration in relation to the negative (no compound) control to calculate the EC50 (1b).

Question: How did the EC50 turn out when `CC(C)(C)CCN1C(=O)C(C2=NS(=O)(=O)c3c(CNS(C)(=O)=O)csc3N2)=C(O)C2C3CCC(C4CC43)C21` (racemic) [Example 24, (rac-di-endo)-N-{3-[3-(3,3-Dimethyl-butyl)-6-hydroxy-4-oxo-3-aza-tetracyclo[6.3.2.0^2,7.0^9,11]tridec-5-en-5-yl]-1,1-dioxo-1,4-dihydro-1λ^6-thieno[2,3-e][1,2,4]thiadiazin-7-ylmethyl}-methanesulfonamide] was run?
Answer: The EC50 was at most 5 nM.

Question: How did the EC50 turn out when `CS(=O)(=O)NCc1csc2c1S(=O)(=O)N=C(C1=C(O)[C@@H]3C4CCC(CC4)[C@@H]3N(Cc3ccc(F)cc3)C1=O)N2` [Example 91, N-{3-[(2S,7R)-3-(4-Fluoro-benzyl)-6-hydroxy-4-oxo-3-aza-tricyclo[6.2.2.0^2,7]dodec-5-en-5-yl]-1,1-dioxo-1,4-dihydro-1λ^6-thieno[2,3-e][1,2,4]thiadiazin-7-ylmethyl}-methanesulfonamide] was run?
Answer: Its EC50 is at most 5 nM.

Question: `CS(=O)(=O)NCc1csc2c1S(=O)(=O)N=C(C1=C(O)[C@@H]3[C@H]4CC[C@H](C4)[C@@H]3N(Cc3ccc(F)c(F)c3)C1=O)N2` [Example 88, N-{3-[(1R,2S,7R,8S)-3-(3,4-Difluoro-benzyl)-6-hydroxy-4-oxo-3-aza-tricyclo[6.2.1.0^2,7]undec-5-en-5-yl]-1,1-dioxo-1,4-dihydro-1λ^6-thieno[2,3-e][1,2,4]thiadiazin-7-ylmethyl}-methanesulfonamide] was tested. Which EC50 did it give?
Answer: Its EC50 is at most 5 nM.

Question: `CC(C)CCN1C(=O)C(C2=NS(=O)(=O)c3c(CNS(C)(=O)=O)csc3N2)=C(O)[C@@H]2[C@@H]3CC[C@@H](C3)[C@@H]21` [Example 69, N-{3-[(1S,2S,7R,8R)-6-Hydroxy-3-(3-methyl-butyl)-4-oxo-3-aza-tricyclo[6.2.1.0^2,7]undec-5-en-5-yl]-1,1-dioxo-1,4-dihydro-1λ^6-thieno[2,3-e][1,2,4]thiadiazin-7-ylmethyl}-methanesulfonamide] was tested. Which EC50 did it give?
Answer: The EC50 was 20 to 100 nM.

Question: `COc1ccc(CN2C(=O)C(C3=NS(=O)(=O)c4c(CNS(C)(=O)=O)csc4N3)=C(O)C3C4CCC(O4)C32)c(OC)c1` (racemic) [Example 75, (rac-di-exo)-N-{3-[3-(2,4-Dimethoxy-benzyl)-6-hydroxy-4-oxo-11-oxa-3-aza-tricyclo[6.2.1.0^2,7]undec-5-en-5-yl]-1,1-dioxo-1,4-dihydro-1λ^6-thieno[2,3-e][1,2,4]thiadiazin-7-ylmethyl}-methanesulfonamide] was tested. Which EC50 did it give?
Answer: Its EC50 is over 1000 nM.

Question: `CC1CN(Cc2ccc(F)cc2)C(=O)C(C2=NS(=O)(=O)c3c(CNS(C)(=O)=O)csc3N2)=C1O` (racemic) [Example 10, rac-N-{3-[1-(4-Fluoro-benzyl)-4-hydroxy-5-methyl-2-oxo-1,2,5,6-tetrahydro-pyridin-3-yl]-1,1-dioxo-1,4-dihydro-1λ^6-thieno[2,3-e][1,2,4]thiadiazin-7-ylmethyl}-methanesulfonamide] was tested. Which EC50 did it give?
Answer: The EC50 was 100 to 1000 nM.

Question: Which EC50 does the source give for `CS(=O)(=O)NCc1csc2c1S(=O)(=O)N=C(C1=C(O)CC(C3CCCC3)N(Cc3ccc(F)cc3)C1=O)N2` (racemic) [Example 9, rac-N-{3-[6-Cyclopentyl-1-(4-fluoro-benzyl)-4-hydroxy-2-oxo-1,2,5,6-tetrahydro-pyridin-3-yl]-1,1-dioxo-1,4-dihydro-1λ^6-thieno[2,3-e][1,2,4]thiadiazin-7-ylmethyl}-methanesulfonamide] here?
Answer: The EC50 was 100 to 1000 nM.

Question: Which EC50 does the source give for `CS(=O)(=O)NCc1csc2c1S(=O)(=O)N=C(C1=C(O)[C@@H]3[C@H]4CC[C@H](C4)[C@@H]3N(Cc3cc(F)c(F)c(F)c3)C1=O)N2` [Example 54, N-{3-[(1R,2S,7R,8S)-6-Hydroxy-4-oxo-3-(3,4,5-trifluoro-benzyl)-3-aza-tricyclo[6.2.1.0^2,7]undec-5-en-5-yl]-1,1-dioxo-1,4-dihydro-1λ^6-thieno[2,3-e][1,2,4]thiadiazin-7-ylmethyl}-methanesulfonamide] here?
Answer: The EC50 was 5 to 20 nM.

Question: Which EC50 does the source give for `CC(=O)NCc1csc2c1S(=O)(=O)N=C(C1=C(O)[C@@H]3[C@H]4CC[C@H](C4)[C@@H]3N(Cc3ccc(F)cc3)C1=O)N2` [Example 35, N-{3-[(1R,2S,7R,8S)-3-(4-Fluoro-benzyl)-6-hydroxy-4-oxo-3-aza-tricyclo[6.2.1.0^2,7]undec-5-en-5-yl]-1,1-dioxo-1,4-dihydro-1λ^6-thieno[2,3-e][1,2,4]thiadiazin-7-ylmethyl}-acetamide] here?
Answer: Its EC50 is 5 to 20 nM.

Question: For `CC(C)(C)CCN1C(=O)C(C2=NS(=O)(=O)c3c(CNS(C)(=O)=O)csc3N2)=C(O)C2C3C=CC(C3)C21` (racemic) [Example 65, (rac-di-exo)-N-{3-[3-(3,3-Dimethyl-butyl)-6-hydroxy-4-oxo-3-aza-tricyclo[6.2.1.0^2,7]undeca-5,9-dien-5-yl]-1,1-dioxo-1,4-dihydro-1λ^6-thieno[2,3-e][1,2,4]thiadiazin-7-ylmethyl}-methanesulfonamide], which EC50 is on record?
Answer: The EC50 was at most 5 nM.

Question: How did the EC50 turn out when `CS(=O)(=O)NCc1csc2c1S(=O)(=O)N=C(C1=C(O)C3CCCCCC3N(CC3CCCCC3)C1=O)N2` (racemic) [Example 105, (rac-cis)-N-[3-(1-Cyclohexylmethyl-4-hydroxy-2-oxo-2,4a,5,6,7,8,9,9a-octahydro-1H-cyclohepta[b]pyridin-3-yl)-1,1-dioxo-1,4-dihydro-1λ^6-thieno[2,3-e][1,2,4]thiadiazin-7-ylmethyl]-methanesulfonamide] was run?
Answer: The EC50 was 100 to 1000 nM.

Question: `CS(=O)(=O)NCc1csc2c1S(=O)(=O)N=C(C1=C(O)[C@@H]3[C@H]4CC[C@H](C4)[C@@H]3N(Cc3ccc(F)cc3F)C1=O)N2` [Example 49, N-{3-[(1R,2S,7R,8S)-3-(2,4-Difluoro-benzyl)-6-hydroxy-4-oxo-3-aza-tricyclo[6.2.1.0^2,7]undec-5-en-5-yl]-1,1-dioxo-1,4-dihydro-1λ^6-thieno[2,3-e][1,2,4]thiadiazin-7-ylmethyl}-methanesulfonamide] was tested. Which EC50 did it give?
Answer: The EC50 was 20 to 100 nM.

Question: With `CS(=O)(=O)NCc1csc2c1S(=O)(=O)N=C(C1=C(O)C3CCCCCC3N(Cc3cc(F)c(F)c(F)c3)C1=O)N2` (racemic) [Example 140, (rac-cis)-N-{3-[4-Hydroxy-2-oxo-1-(3,4,5-trifluoro-benzyl)-2,4a,5,6,7,8,9,9a-octahydro-1H-cyclohepta[b]pyridin-3-yl]-1,1-dioxo-1,4-dihydro-1λ^6-thieno[2,3-e][1,2,4]thiadiazin-7-ylmethyl}-methanesulfonamide] as the compound, how does the EC50 read?
Answer: Its EC50 is over 1000 nM.

Question: `CS(=O)(=O)NCc1csc2c1S(=O)(=O)N=C(C1=C(O)C3C4CC(C5CC54)C3N(Cc3ccc(F)cc3)C1=O)N2` (racemic) [Example 32, (rac-di-exo, di-exo)-N-{3-[3-(4-Fluoro-benzyl)-6-hydroxy-4-oxo-3-aza-tetracyclo[6.3.1.0^2,7.0^9,11]dodec-5-en-5-yl]-1,1-dioxo-1,4-dihydro-1λ^6-thieno[2,3-e][1,2,4]thiadiazin-7-ylmethyl}-methanesulfonamide] was tested. Which EC50 did it give?
Answer: Its EC50 is at most 5 nM.

Question: For `CS(=O)(=O)NCc1csc2c1S(=O)(=O)N=C(C1=C(O)C3CCCCC3NC1=O)N2` (racemic) [Example 86, (rac-cis)-N-[3-(4-Hydroxy-2-oxo-1,2,4a,5,6,7,8,8a-octahydro-quinolin-3-yl)-1,1-dioxo-1,4-dihydro-1λ^6-thieno[2,3-e][1,2,4]thiadiazin-7-ylmethyl]-methanesulfonamide], which EC50 is on record?
Answer: Its EC50 is over 1000 nM.

Question: With `CS(=O)(=O)NCc1csc2c1S(=O)(=O)N=C(C1=C(O)C3C4C=CC(C4)C3N(Cc3ccc(F)cc3)C1=O)N2` (racemic) [Example 47, (rac-di-exo)-N-{3-[3-(4-Fluoro-benzyl)-6-hydroxy-4-oxo-3-aza-tricyclo[6.2.1.0^2,7]undeca-5,9-dien-5-yl]-1,1-dioxo-1,4-dihydro-1λ^6-thieno[2,3-e][1,2,4]thiadiazin-7-ylmethyl}-methanesulfonamide] as the compound, how does the EC50 read?
Answer: Its EC50 is at most 5 nM.

Question: With `CC(C)CCN1C(=O)C(C2=NS(=O)(=O)c3c(CNS(C)(=O)=O)csc3N2)=C(O)C2C3C=CC(C3)C21` (racemic) [Example 66, (rac-di-exo)-N-{3-[6-Hydroxy-3-(3-methyl-butyl)-4-oxo-3-aza-tricyclo[6.2.1.0^2,7]undeca-5,9-dien-5-yl]-1,1-dioxo-1,4-dihydro-1λ^6-thieno[2,3-e][1,2,4]thiadiazin-7-ylmethyl}-methanesulfonamide] as the compound, how does the EC50 read?
Answer: The EC50 was 5 to 20 nM.

Question: With `CS(=O)(=O)NCc1csc2c1S(=O)(=O)N=C(C1=C(O)[C@@H]3CCC[C@@H]3N(Cc3ccc(F)c(F)c3)C1=O)N2` [Example 125, (4aR,7aS)-N-{3-[1-(3,4-Difluoro-benzyl)-4-hydroxy-2-oxo-2,4a,5,6,7,7a-hexahydro-1H-[1]pyrindin-3-yl]-1,1-dioxo-1,4-dihydro-1λ^6-thieno[2,3-e][1,2,4]thiadiazin-7-ylmethyl}-methanesulfonamide] as the compound, how does the EC50 read?
Answer: The EC50 was 20 to 100 nM.

Question: Which EC50 does the source give for `CS(=O)(=O)NCc1csc2c1S(=O)(=O)N=C(C1=C(O)[C@@H]3[C@@H]4CC[C@@H](C4)[C@@H]3N(Cc3ccc(F)cc3)C1=O)N2` [Example 89, N-{3-[(1S,2S,7R,8R)-3-(4-Fluoro-benzyl)-6-hydroxy-4-oxo-3-aza-tricyclo[6.2.1.0^2,7]undec-5-en-5-yl]-1,1-dioxo-1,4-dihydro-1λ^6-thieno[2,3-e][1,2,4]thiadiazin-7-ylmethyl}-methanesulfonamide] here?
Answer: Its EC50 is at most 5 nM.

Question: With `CS(=O)(=O)NCc1csc2c1S(=O)(=O)N=C(C1=C(O)[C@@H]3[C@H]4CC[C@H](C4)[C@@H]3NC1=O)N2` [Example 80, N-[3-((1R,2S,7R,8S)-6-Hydroxy-4-oxo-3-aza-tricyclo[6.2.1.0^2,7]undec-5-en-5-yl)-1,1-dioxo-1,4-dihydro-1λ^6-thieno[2,3-e][1,2,4]thiadiazin-7-ylmethyl]-methanesulfonamide] as the compound, how does the EC50 read?
Answer: The EC50 was over 1000 nM.

Question: `CS(=O)(=O)NCc1csc2c1S(=O)(=O)N=C(C1=C(O)[C@@H]3[C@H]4CC[C@H](C4)[C@@H]3N(Cc3ccsc3)C1=O)N2` [Example 55, N-[(1R,2S,7R,8S)-3-(6-Hydroxy-4-oxo-3-thiophen-3-ylmethyl-3-aza-tricyclo[6.2.1.0^2,7]undec-5-en-5-yl)-1,1-dioxo-1,4-dihydro-1λ^6-thieno[2,3-e][1,2,4]thiadiazin-7-ylmethyl]-methanesulfonamide] was tested. Which EC50 did it give?
Answer: Its EC50 is at most 5 nM.
